Data reported in patent US5998430A, “Use of trospium chloride and 2-component system for the same” (Dr. R. Pfleger Chemische Fabrik GmbH, priority 1996, dated 1999).

Assays:
bladder tissue [1] = details: rabbits; intravesical instillation of crushed tablets; cited from earlier work
[2] = compared with administration of equivalent oral dosages; cited from earlier work
[3] = system: smooth muscle cells of the detrusor; test: internal investigations: direct (musculotropic) action on smooth muscle cells of the detrusor; format: cell-based
From the text: It will be appreciated that the active agent trospium chloride acts as an anticholinergic, i.e. it occupies receptors of the parasympathetic nervous system, without causing the effects induced by the natural neurotransmitter acetyl choline (neurotropic action). The anticholinergic power of trospium chloride in vitro is 20 times greater than that of oxybutynin (Eckert R. E., Wilhelm A., Schwantes U., Utz J. Alloussi S., Trautwein W. & Ziegler M., Modulation of the cytoplasmic Ca^2+ concentration of isolated myocytes of the detrusor vesicae by anticholinergics, Akt. Urol. 26, 46, 1995). […] These musculotropic characteristics are particularly important in the case of direct administration to the bladder.

[4] = stability of the aqueous solution during storage and transportation; format: physicochemical
Method: Accordingly, the invention provides for an aqueous trospium chloride solution prepared from two components, as described above. For the aqueous solution to remain stable for a long time during storage and transportation, the pH-value should be lower than 4.5. However, such a solution has never been considered suitable for administration to the bladder and is also unacceptable for physiological reasons. Therefore the invention assumes that the aqueous solution is prepared prior to administration with a pH-value equal to or greater than 4.5, in order to exclude from the outset ageing, storage and transportation problems.

[5] = oral and rectal administration forms; cited from earlier work
bladder tissue [6] = test: study on beagles concerning local compatibility following once daily intravesical instillation over 4 weeks; format: in vivo; details: selected formulation
[7] = system: isolated myocytes of the detrusor vesicae; details: greater than that of oxybutynin; cited from earlier work
[8] = plasma concentrations of trospium chloride after intravesicular instillation; format: in vivo; details: intravesicular instillation of 7.5 mg trospium chloride/20 ml; period of 12 hours; sensitive, validated measuring method
Method: It is particularly advantageous to prepare said aqueous solution with a pH-value≥4.5 immediately prior to administration, in order to prevent any decomposition of the active agent trospium chloride. In particular, the pH-value of the inventive formulation is 5.0 to 7.5, so that it falls entirely within the pH-value range of the normal urine of healthy humans. […] This was confirmed by measuring plasma concentrations of trospium chloride after intravesicular instillation of 7.5 mg trospium chloride/20 ml for a period of 12 hours.

SMILES	inflammatory processes in the region of the bladder tissue (histological evaluation) (bladder tissue [1])	absorption following intravesicular instillation [2]	direct action on smooth muscle cells of the detrusor (basal Ca^2+ flow) [3]	pH-value for the aqueous solution to remain stable for a long time [4]	absorption from the intestinal lumen into the system [5]	local compatibility (local adverse effects to the bladder tissue) (bladder tissue [6])	anticholinergic power in vitro, relative to oxybutynin [7] [times]	plasma concentrations [8]
CCN(CC)CC#CCOC(=O)C(O)(c1ccccc1)C1CCCCC1 (centres unmarked) [oxybutynin]	Inflammatory processes were detected	absorbed to a greater extent	–	–	–	–	–	–
O=C(O[C@H]1C[C@H]2CC[C@@H](C1)[N+]21CCCC1)C(O)(c1ccccc1)c1ccccc1 [trospium chloride]	–	–	inhibition of the basal Ca^2+ flow	lower than 4.5	poor absorption	did not lead to local adverse effects to the bladder tissue	20	At no time plasma concentrations were detected that were above the detection limit
